What was measured:
[1] = tested on: Human Pgp/BCRP transporter; assay: Human Pgp/BCRP transporter substrate assessment; type: in vitro ADME
[2] = Clinical study on safety in patients with HER2+ MBC; type: in vivo, human
Excerpt: […] All patients had prior anti-HER2 antibody and chemotherapy treatment. Majority of patients ([…]) also had prior anti-HER2 small molecule treatment.

[3] = 100 mg (N = 4), CTCAE Grade All
[4] = 200 mg (N = 5), CTCAE Grade All
[5] = HER2+ MBC patients, oral twice daily, doses tested
[6] = Total (N = 14), CTCAE Grade All

COc1cc(O[C@H]2CCN(C)CC2(F)F)c2c(Nc3ccc(Oc4ccn5ncnc5c4)c(C)c3)ncnc2c1 (single isomer, unassigned) [Compound 6]
Human Pgp/BCRP transporter substrate [1]: No | TEAE Anaemia, patients ([2]; 25 mg (N = 1), CTCAE Grade All): 0 | TEAE Aspartate aminotransferase increased, patients ([2]; 25 mg (N = 1), CTCAE Grade All): 0 | TEAE Bilirubin conjugated increased, patients ([2]; 25 mg (N = 1), CTCAE Grade All): 0 | TEAE Blood bilirubin increased, patients ([2]; 25 mg (N = 1), CTCAE Grade All): 1 | TEAE Blood bilirubin unconjugated increased, patients ([2]; 25 mg (N = 1), CTCAE Grade All): 1 | TEAE Blood creatinine increased, patients ([2]; 25 mg (N = 1), CTCAE Grade All): 0 | TEAE Fatigue, patients ([2]; 25 mg (N = 1), CTCAE Grade All): 0 | TEAE Haemoglobin decreased, patients ([2]; 25 mg (N = 1), CTCAE Grade All): 0 | TEAE Headache, patients ([2]; 25 mg (N = 1), CTCAE Grade All): 0 | TEAE Lipase increased, patients ([2]; 25 mg (N = 1), CTCAE Grade All): 0 | TEAE Pain, patients ([2]; 25 mg (N = 1), CTCAE Grade All): 0 | TEAE Platelet count decreased, patients ([2]; 25 mg (N = 1), CTCAE Grade All): 0 | TEAE Proteinuria, patients ([2]; 25 mg (N = 1), CTCAE Grade All): 0 | TEAE Vomiting, patients ([2]; 25 mg (N = 1), CTCAE Grade All): 0 | TEAE Anaemia, patients ([2]; 25 mg (N = 1), CTCAE Grade ≥3): 0 | TEAE Aspartate aminotransferase increased, patients ([2]; 25 mg (N = 1), CTCAE Grade ≥3): 0 | TEAE Bilirubin conjugated increased, patients ([2]; 25 mg (N = 1), CTCAE Grade ≥3): 0 | TEAE Blood bilirubin increased, patients ([2]; 25 mg (N = 1), CTCAE Grade ≥3): 0 | TEAE Blood bilirubin unconjugated increased, patients ([2]; 25 mg (N = 1), CTCAE Grade ≥3): 0 | TEAE Blood creatinine increased, patients ([2]; 25 mg (N = 1), CTCAE Grade ≥3): 0 | TEAE Fatigue, patients ([2]; 25 mg (N = 1), CTCAE Grade ≥3): 0 | TEAE Haemoglobin decreased, patients ([2]; 25 mg (N = 1), CTCAE Grade ≥3): 0 | TEAE Headache, patients ([2]; 25 mg (N = 1), CTCAE Grade ≥3): 0 | TEAE Lipase increased, patients ([2]; 25 mg (N = 1), CTCAE Grade ≥3): 0 | TEAE Pain, patients ([2]; 25 mg (N = 1), CTCAE Grade ≥3): 0 | TEAE Platelet count decreased, patients ([2]; 25 mg (N = 1), CTCAE Grade ≥3): 0 | TEAE Proteinuria, patients ([2]; 25 mg (N = 1), CTCAE Grade ≥3): 0 | TEAE Vomiting, patients ([2]; 25 mg (N = 1), CTCAE Grade ≥3): 0 | TEAE Anaemia, patients ([2]; 50 mg (N = 4), CTCAE Grade All): 1 | TEAE Aspartate aminotransferase increased, patients ([2]; 50 mg (N = 4), CTCAE Grade All): 1 | TEAE Bilirubin conjugated increased, patients ([2]; 50 mg (N = 4), CTCAE Grade All): 0 | TEAE Blood bilirubin increased, patients ([2]; 50 mg (N = 4), CTCAE Grade All): 0 | TEAE Blood bilirubin unconjugated increased, patients ([2]; 50 mg (N = 4), CTCAE Grade All): 0 | TEAE Blood creatinine increased, patients ([2]; 50 mg (N = 4), CTCAE Grade All): 1 | TEAE Fatigue, patients ([2]; 50 mg (N = 4), CTCAE Grade All): 0 | TEAE Haemoglobin decreased, patients ([2]; 50 mg (N = 4), CTCAE Grade All): 1 | TEAE Headache, patients ([2]; 50 mg (N = 4), CTCAE Grade All): 1 | TEAE Lipase increased, patients ([2]; 50 mg (N = 4), CTCAE Grade All): 2 | TEAE Pain, patients ([2]; 50 mg (N = 4), CTCAE Grade All): 1 | TEAE Platelet count decreased, patients ([2]; 50 mg (N = 4), CTCAE Grade All): 1 | TEAE Proteinuria, patients ([2]; 50 mg (N = 4), CTCAE Grade All): 1 | TEAE Vomiting, patients ([2]; 50 mg (N = 4), CTCAE Grade All): 0 | TEAE Anaemia, patients ([2]; 50 mg (N = 4), CTCAE Grade ≥3): 0 | TEAE Aspartate aminotransferase increased, patients ([2]; 50 mg (N = 4), CTCAE Grade ≥3): 0 | TEAE Bilirubin conjugated increased, patients ([2]; 50 mg (N = 4), CTCAE Grade ≥3): 0 | TEAE Blood bilirubin increased, patients ([2]; 50 mg (N = 4), CTCAE Grade ≥3): 0 | TEAE Blood bilirubin unconjugated increased, patients ([2]; 50 mg (N = 4), CTCAE Grade ≥3): 0 | TEAE Blood creatinine increased, patients ([2]; 50 mg (N = 4), CTCAE Grade ≥3): 0 | TEAE Fatigue, patients ([2]; 50 mg (N = 4), CTCAE Grade ≥3): 0 | TEAE Haemoglobin decreased, patients ([2]; 50 mg (N = 4), CTCAE Grade ≥3): 0 | TEAE Headache, patients ([2]; 50 mg (N = 4), CTCAE Grade ≥3): 0 | TEAE Lipase increased, patients ([2]; 50 mg (N = 4), CTCAE Grade ≥3): 0 | TEAE Pain, patients ([2]; 50 mg (N = 4), CTCAE Grade ≥3): 0 | TEAE Platelet count decreased, patients ([2]; 50 mg (N = 4), CTCAE Grade ≥3): 0 | TEAE Proteinuria, patients ([2]; 50 mg (N = 4), CTCAE Grade ≥3): 0 | TEAE Vomiting, patients ([2]; 50 mg (N = 4), CTCAE Grade ≥3): 0 | TEAE Anaemia, patients [2, 3]: 2 | TEAE Aspartate aminotransferase increased, patients [2, 3]: 0 | TEAE Bilirubin conjugated increased, patients [2, 3]: 0 | TEAE Blood bilirubin increased, patients [2, 3]: 0 | TEAE Blood bilirubin unconjugated increased, patients [2, 3]: 0 | TEAE Blood creatinine increased, patients [2, 3]: 0 | TEAE Fatigue, patients [2, 3]: 1 | TEAE Haemoglobin decreased, patients [2, 3]: 0 | TEAE Headache, patients [2, 3]: 2 | TEAE Lipase increased, patients [2, 3]: 0 | TEAE Pain, patients [2, 3]: 0 | TEAE Platelet count decreased, patients [2, 3]: 1 | TEAE Proteinuria, patients [2, 3]: 0 | TEAE Vomiting, patients [2, 3]: 1 | TEAE Anaemia, patients ([2]; 100 mg (N = 4), CTCAE Grade ≥3): 0 | TEAE Aspartate aminotransferase increased, patients ([2]; 100 mg (N = 4), CTCAE Grade ≥3): 0 | TEAE Bilirubin conjugated increased, patients ([2]; 100 mg (N = 4), CTCAE Grade ≥3): 0 | TEAE Blood bilirubin increased, patients ([2]; 100 mg (N = 4), CTCAE Grade ≥3): 0 | TEAE Blood bilirubin unconjugated increased, patients ([2]; 100 mg (N = 4), CTCAE Grade ≥3): 0 | TEAE Blood creatinine increased, patients ([2]; 100 mg (N = 4), CTCAE Grade ≥3): 0 | TEAE Fatigue, patients ([2]; 100 mg (N = 4), CTCAE Grade ≥3): 0 | TEAE Haemoglobin decreased, patients ([2]; 100 mg (N = 4), CTCAE Grade ≥3): 0 | TEAE Headache, patients ([2]; 100 mg (N = 4), CTCAE Grade ≥3): 0 | TEAE Lipase increased, patients ([2]; 100 mg (N = 4), CTCAE Grade ≥3): 0 | TEAE Pain, patients ([2]; 100 mg (N = 4), CTCAE Grade ≥3): 0 | TEAE Platelet count decreased, patients ([2]; 100 mg (N = 4), CTCAE Grade ≥3): 0 | TEAE Proteinuria, patients ([2]; 100 mg (N = 4), CTCAE Grade ≥3): 0 | TEAE Vomiting, patients ([2]; 100 mg (N = 4), CTCAE Grade ≥3): 0 | TEAE Anaemia, patients [2, 4]: 1 | TEAE Aspartate aminotransferase increased, patients [2, 4]: 1 | TEAE Bilirubin conjugated increased, patients [2, 4]: 2 | TEAE Blood bilirubin increased, patients [2, 4]: 2 | TEAE Blood bilirubin unconjugated increased, patients [2, 4]: 1 | TEAE Blood creatinine increased, patients [2, 4]: 1 | TEAE Fatigue, patients [2, 4]: 1 | TEAE Haemoglobin decreased, patients [2, 4]: 3 | TEAE Headache, patients [2, 4]: 1 | TEAE Lipase increased, patients [2, 4]: 1 | TEAE Pain, patients [2, 4]: 1 | TEAE Platelet count decreased, patients [2, 4]: 1 | TEAE Proteinuria, patients [2, 4]: 2 | TEAE Vomiting, patients [2, 4]: 2 | TEAE Anaemia, patients ([2]; 200 mg (N = 5), CTCAE Grade ≥3): 0 | TEAE Aspartate aminotransferase increased, patients ([2]; 200 mg (N = 5), CTCAE Grade ≥3): 0 | TEAE Bilirubin conjugated increased, patients ([2]; 200 mg (N = 5), CTCAE Grade ≥3): 1 | TEAE Blood bilirubin increased, patients ([2]; 200 mg (N = 5), CTCAE Grade ≥3): 0 | TEAE Blood bilirubin unconjugated increased, patients ([2]; 200 mg (N = 5), CTCAE Grade ≥3): 0 | TEAE Blood creatinine increased, patients ([2]; 200 mg (N = 5), CTCAE Grade ≥3): 0 | TEAE Fatigue, patients ([2]; 200 mg (N = 5), CTCAE Grade ≥3): 0 | TEAE Haemoglobin decreased, patients ([2]; 200 mg (N = 5), CTCAE Grade ≥3): 0 | TEAE Headache, patients ([2]; 200 mg (N = 5), CTCAE Grade ≥3): 0 | TEAE Lipase increased, patients ([2]; 200 mg (N = 5), CTCAE Grade ≥3): 0 | TEAE Pain, patients ([2]; 200 mg (N = 5), CTCAE Grade ≥3): 0 | TEAE Platelet count decreased, patients ([2]; 200 mg (N = 5), CTCAE Grade ≥3): 0 | TEAE Proteinuria, patients ([2]; 200 mg (N = 5), CTCAE Grade ≥3): 0 | TEAE Vomiting, patients ([2]; 200 mg (N = 5), CTCAE Grade ≥3): 0 | dose limiting toxicities [2, 5]: no dose limiting toxicities observed | tolerability [2, 5]: well tolerated | TEAE Anaemia, patients [2, 6]: 4 | TEAE Aspartate aminotransferase increased, patients [2, 6]: 2 | TEAE Bilirubin conjugated increased, patients [2, 6]: 2 | TEAE Blood bilirubin increased, patients [2, 6]: 3 | TEAE Blood bilirubin unconjugated increased, patients [2, 6]: 2 | TEAE Blood creatinine increased, patients [2, 6]: 2 | TEAE Fatigue, patients [2, 6]: 2 | TEAE Haemoglobin decreased, patients [2, 6]: 4 | TEAE Headache, patients [2, 6]: 4 | TEAE Lipase increased, patients [2, 6]: 3 | TEAE Pain, patients [2, 6]: 2 | TEAE Platelet count decreased, patients [2, 6]: 3 | TEAE Proteinuria, patients [2, 6]: 3 | TEAE Vomiting, patients [2, 6]: 3 | TEAE Anaemia, patients ([2]; Total (N = 14), CTCAE Grade ≥3): 0 | TEAE Aspartate aminotransferase increased, patients ([2]; Total (N = 14), CTCAE Grade ≥3): 0 | TEAE Bilirubin conjugated increased, patients ([2]; Total (N = 14), CTCAE Grade ≥3): 1 | TEAE Blood bilirubin increased, patients ([2]; Total (N = 14), CTCAE Grade ≥3): 0 | TEAE Blood bilirubin unconjugated increased, patients ([2]; Total (N = 14), CTCAE Grade ≥3): 0 | TEAE Blood creatinine increased, patients ([2]; Total (N = 14), CTCAE Grade ≥3): 0 | TEAE Fatigue, patients ([2]; Total (N = 14), CTCAE Grade ≥3): 0 | TEAE Haemoglobin decreased, patients ([2]; Total (N = 14), CTCAE Grade ≥3): 0 | TEAE Headache, patients ([2]; Total (N = 14), CTCAE Grade ≥3): 0 | TEAE Lipase increased, patients ([2]; Total (N = 14), CTCAE Grade ≥3): 0 | TEAE Pain, patients ([2]; Total (N = 14), CTCAE Grade ≥3): 0 | TEAE Platelet count decreased, patients ([2]; Total (N = 14), CTCAE Grade ≥3): 0 | TEAE Proteinuria, patients ([2]; Total (N = 14), CTCAE Grade ≥3): 0 | TEAE Vomiting, patients ([2]; Total (N = 14), CTCAE Grade ≥3): 0
